This is an account of results in PubChem BioAssay AID489033 (Sanford-Burnham Center for Chemical Genomics, 2010).

SMILES strings stand for the structures. pIC50: −log10 of the molar value. The source made the active and inactive calls. No rule for the calls is given here.

This assay deals with 697B B-cell line, NF-kB luciferase reporter luminescence. Briefly: NF-kB reporter inhibition in B cells, dose response, selectivity assay for T-cell antigen receptor NF-kB inhibitors, 697B cells, luminescence (AID 489033).
As usually defined, the IC50 is the concentration that inhibits the measured activity by half. On to `COc1cc(C2C3=C(Nc4ncnn42)c2ccccc2CC3)cc(OC)c1OC` (centres undefined), for which the IC50 is > 80 µM (inactive).
In general, pIC50 refers to the IC50 on a negative log10 scale, so that one unit is a factor of ten. For `Cc1ccc(C(=O)Nc2cc3ccccc3oc2=O)cc1`, the pIC50 is 5.68.
Regarding `Clc1cccc(Cl)c1OCCOCCNCc1ccccc1`, the IC50 was > 80 µM (inactive).
As for `O=C(N=Nc1c(O)[nH]c2ccc(Br)cc12)c1ccccc1-n1cccc1`, the IC50 was 57 µM (inactive).
On to `O=C1c2cccc3cc([N+](=O)[O-])cc(c23)C(=O)N1CCN1CCCC1`, for which the pIC50 was 4.73.
In the case of `O=C(Nc1ncc(Cc2ccc(SC(F)F)cc2)s1)c1ccc(OC(F)F)cc1`, the IC50 is > 80 µM (inactive).
Take `CN(C)c1ccc(-[n+]2c(-c3ccccc3)cc(-c3ccccc3)cc2-c2ccccc2)cc1`: the pIC50 is 6.10.
For `COc1ccccc1N=C(C)C1=C(O)CC(c2ccccc2)CC1=O` (centres undefined), the IC50 was > 80 µM (inactive).
`C[C@]12CCC3C(CCC4=CC(O)CC[C@@]43/C=N/O)C1(O)CCC2C1=CC(=O)OC1` (some centres undefined): the pIC50 was 5.59.
Consider `COc1ccc(-c2csc(NC(=O)C3CCN(c4ncnc5sc(C)c(C)c45)CC3)n2)cc1OC`, for which the pIC50 is 4.94.
In the case of `Cn1ncc2c(N3CCN(c4ccc(Cl)c(Cl)c4)CC3)ncnc21`, the IC50 was > 80 µM (inactive).
In the case of `Nc1nc(-c2ccccc2)cc(N2CCCCC2)n1`, the IC50 is > 80 µM (inactive).
As for `CCN(CC)c1ccc2nc3ccccc3[n+](CC)c2c1`, the IC50 is 45.8 µM (inactive).
In the case of `O=C(Nc1ccccc1Cl)/C(Cl)=C(\Cl)S(=O)c1ccccc1` (centres undefined), the pIC50 was 6.28.
On to `CCCc1cc(C(=O)Nc2cc(C)ccc2O)no1`, for which the IC50 was > 80 µM (inactive).
Same read-out and setting: next, `COc1ccc(OC)c(C2CC(=O)c3c([nH]c(C(=O)OC(C)C)c3C)C2)c1` (centres undefined): > 80 µM (inactive); `O=c1cc(-c2ccccc2)[nH]c2cc(Cl)ccc12`: > 80 µM (inactive).
As to `COc1cccc(-c2cc(=O)c3cc(NC(=O)c4ccc(N(C)C)cc4)ccc3[nH]2)c1`, the IC50 was > 80 µM (inactive).
In the case of `C=C(C)COc1ccc(-c2n[nH]c(C)c2-c2ccc(OC)c(OC)c2)c(O)c1`, the IC50 was 43.3 µM (inactive).
Regarding `Cc1ccc(O)c(N=Nc2nccs2)c1`, the pIC50 is 5.07.
Take `Cc1ccnc2c1ccc1c(C)ccnc12`: the pIC50 was 5.00.
Still for that read-out and setting: next, `Oc1ccccc1N=Nc1nc(-c2ccccc2)c(-c2ccccc2)[nH]1`: 5.34.
For `COC(=O)c1ccccc1NC(=O)CSc1nc(-c2ccco2)cc(C(F)(F)F)n1`, the IC50 is > 80 µM (inactive).
On to `CCCCN1/C(=C/c2ccc3ccccc3[n+]2CC)Sc2ccccc21`, for which the pIC50 was 5.09.
Turning to `COc1ccc(OC)c(Nc2cc(-c3ccccc3)nc(N)n2)c1`, the IC50 is > 80 µM (inactive).
The same measure, in the same setting: next, `Cc1ccc2nc(C)c(CN3CCN(c4ccc([N+](=O)[O-])cc4Cl)CC3)n2c1`: > 80 µM (inactive).
On to `N#C/C(=C\c1ccc(OCc2ccc(C(=O)O)cc2)cc1)C(=O)N1CCOCC1`, for which the pIC50 was 5.23.
On to `CCCC[C@@H](C)C[C@@H](C)C(=O)N(C)[C@@H](CC(C)C)C(=O)N[C@H](C(=O)N(C)[C@H](C(=O)N1C[C@@H](O)C[C@H]1C(=O)N1C(=O)C=C[C@@H]1C)C(C)C)C(C)OC(C)=O` (some centres undefined), for which the pIC50 was above 6.80.
Regarding `O=C(c1ccccc1)c1cc([N+](=O)[O-])ccc1N1CCOCC1`, the IC50 is > 80 µM (inactive).
Regarding `Cc1ccc(N(C)S(=O)(=O)c2ccc(-c3cnc(C4CC4)o3)cc2)cc1`, the IC50 is 67.6 µM (inactive).
With `COc1cc(Cn2c(-c3nonc3N)nc3ccccc32)ccc1C`, the IC50 is > 80 µM (inactive).
For `O=C1c2c(O)ccc(O)c2C(=O)c2c(NCCNCCO)ccc(NCCNCCO)c21`, the pIC50 was 5.38.
For `Cc1ccc(N2C(=O)c3cccc4c(N)ccc(c34)C2=O)c2cccnc12`, the IC50 is > 80 µM (inactive).
With `COc1ccc(OC)c(NS(=O)(=O)c2ccc(N3CCCC3=O)cc2)c1`, the IC50 was > 80 µM (inactive).
Take `O=S1(=O)Nc2c(ccc3cccnc23)-c2ccccc21`: the pIC50 is 6.27.
With `CCOc1ccc(Br)cc1C1=CC(=O)C[C@H](c2ccc(OC)cc2)C1`, the IC50 is > 80 µM (inactive).
`CCN1/C(=C/c2ccc3ccccc3[n+]2CC)C=Cc2ccccc21`: the pIC50 was 5.45.
For `Oc1ccc2ccccc2c1/C=N/Nc1nnc(-c2ncc[nH]2)c2ccccc12`, the IC50 was > 80 µM (inactive).
As to `C/C(=N\NC(=O)c1ccc(Cl)c(Cl)c1)c1ccccn1`, the pIC50 was 5.99.
Regarding `COc1cc(CC(=O)OCC(=O)c2ccc3c(c2)OCCO3)cc(OC)c1OC`, the IC50 is > 80 µM (inactive).
Take `C[C@@H]1C=CC(=O)O[C@@H]1c1ccc(Cl)cc1`: the pIC50 is 5.29.
For the compound `COC(=O)c1[nH]c2c(c1C)C(=O)CC(c1cccs1)C2` (centres undefined), the IC50 was > 80 µM (inactive).
As to `Cc1ccc2c(c1)Oc1ccc(NC(=O)CCl)cc1C(=O)N2`, the pIC50 is 6.14.
In the case of `O=C(N/N=C\c1c(O)ccc2ccccc12)c1cncc(Br)c1`, the IC50 is > 80 µM (inactive).
Consider `CCOC(=O)c1[nH]c(C)c(C(=O)Nc2ccccc2C)c1C`, for which the IC50 was 40.3 µM (inactive).
Take `O=C(c1ccccc1-c1ccccc1)N1CCN(c2ccccn2)CC1`: the IC50 is > 80 µM (inactive).
As to `COc1cccc(/C=N/Nc2ncnc3c2ncn3Cc2ccccc2)c1O`, the IC50 is 23.4 µM (inactive).
Regarding `Cc1nnc(N/N=C/c2ccccn2)[nH]c1=O`, the pIC50 is 5.84.
For the compound `CCCCCCCCn1c2c(c(=N)c3c1CCC3)CCCC2`, the IC50 is 27.5 µM (inactive).
For `COc1ccc(C(=O)N2CCN(c3ccc([N+](=O)[O-])c(NCCc4ccc(OC)c(OC)c4)c3)CC2)cc1`, the IC50 was > 80 µM (inactive).
For `Cc1ccc2c(c1)sc(-c1ccc(N(C)C)cc1)[n+]2C`, the IC50 is 33.6 µM (inactive).
Still for that read-out and setting: as for `CCOc1ccccc1NS(=O)(=O)c1ccc(-c2cnc(C3CC3)o2)cc1`, the figure is > 80 µM (inactive).
Take `CN(Cc1ccccc1)C1=CC(=[N+]2CCCC2)CC(C)(C)C1`: the IC50 is > 80 µM (inactive).
On to `CCOc1ccc2c(c1)OC(c1ccc(C)cc1)(C(F)(F)F)NC2=O` (centres undefined), for which the IC50 was > 80 µM (inactive).
With `COc1ccc([C@H]2CC(=O)C=C(c3c(OC)cccc3OC)C2)cc1`, the IC50 is > 80 µM (inactive).
In the case of `COc1ccc2c(C)nc(Nc3nc(-c4ccccc4)cc(=O)[nH]3)nc2c1`, the IC50 is > 80 µM (inactive).
Consider `O=c1cc(-c2ccccc2)[nH]c2ccccc12`, for which the IC50 was > 80 µM (inactive).
With `COc1cccc(N2CCN(C(=O)c3ccc(CS(=O)c4ccccc4Cl)o3)CC2)c1` (centres undefined), the IC50 is 69.8 µM (inactive).
With `CC(C)Oc1ccccc1C1CC(=O)Nc2cc3c(cc21)OCO3` (centres undefined), the IC50 is > 80 µM (inactive).
On the same count and under the same terms, as for `Cc1nn(C)c(C)c1CN(Cc1nc(CCC(C)C)no1)C(C)C`, the figure is > 80 µM (inactive).
Turning to `Cc1ccc(S(=O)(=O)Cc2ccc(C(=O)N3CCN(c4cccc(C)c4C)CC3)o2)cc1`, the IC50 is 57.9 µM (inactive).
On to `O=C(N/N=C/c1c(O)ccc2ccccc12)c1ccc(Br)o1`, for which the IC50 is > 80 µM (inactive).
Same read-out and setting: as for `CC(C)Oc1ccccc1C1CC(=O)Nc2cc3c(cc21)OCCO3` (centres undefined), the figure is 59.5 µM (inactive).
With `O=C1C=C(c2ccc3ncccc3c2)C[C@@H](c2ccc3c(c2)OCO3)C1`, the IC50 was > 80 µM (inactive).
Consider `O=C(Nc1ccc(N2CCN(C(=O)c3ccc(Cl)cc3)CC2)cc1)c1ccc2c(c1)OCCO2`, for which the IC50 is > 80 µM (inactive).
With `CC(C)(C)c1csc(Sc2ccc([N+](=O)[O-])cn2)n1`, the pIC50 was 4.99.
For the compound `O=S(=O)(c1cc(F)ccc1F)N1CCN(c2ncnc3ccccc23)CC1`, the IC50 is 74.1 µM (inactive).
In the case of `Cc1ccc(C)c(CSc2nc3[nH]ncc3c(=O)[nH]2)c1`, the pIC50 is 4.80.
With `CSc1ccc(COC(=O)c2cc([N+](=O)[O-])ccc2N2CCOCC2)cc1`, the IC50 is 30 µM (inactive).
Turning to `O=[N+]([O-])c1ccc(O)c(/C=N/Nc2ccc(Cl)nn2)c1`, the IC50 is > 80 µM (inactive).
Consider `COc1cc(NS(C)(=O)=O)ccc1Nc1c2ccccc2nc2ccccc12`, for which the pIC50 was 4.80.
As for `O=S1(=O)C=C(Sc2nc3ccccc3s2)c2ccccc21`, the pIC50 was 6.49.
`Cc1cc(C)cc(NS(=O)(=O)c2ccc(-c3cnc(C4CC4)o3)cc2)c1`: the IC50 is 53.1 µM (inactive).
Same read-out and setting: next, `CCN(CC)c1ccc(-c2nn3c(-c4n[nH]c5c4CCC5)nnc3s2)cc1`: > 80 µM (inactive).
With `O=C(O)c1ccc(N/N=C/c2ccc3c(c2)OCO3)cc1`, the pIC50 is 5.98.
`Cc1nc(SCC(=O)Nc2nc3ccccc3s2)c(C#N)c(C)c1C`: the pIC50 is above 6.80.
Same read-out and setting: next, `COc1ccccc1C(=O)Nc1nc2ccccc2s1`: 6.28.
In the case of `CCOc1ccc2c(c1)sc(N)[n+]2Cc1cc(C)cc2cccnc12`, the IC50 is 33.3 µM (inactive).
With `CCn1c2ccccc2c2cc(Nc3cc(C)nc4ncnn34)ccc21`, the IC50 is 47 µM (inactive).
Regarding `COc1ccc(Cl)cc1NC(=O)CN(C)CC(=O)Nc1ccccc1N1CCOCC1`, the IC50 was > 80 µM (inactive).
For the compound `Cn1nc([N+](=O)[O-])nc1Sc1nnc(-c2ccccc2)o1`, the pIC50 is 4.75.
On to `O=C(N/N=C/c1ccccc1Cl)c1[nH]c2ccc(Br)cc2c1-c1ccccc1`, for which the IC50 is > 80 µM (inactive).
With `C#CC[N+](C)(C)CCCCCCCCCCCC`, the pIC50 was 5.59.
Turning to `COc1ccc(NC(=O)/C(Cl)=C(/Cl)S(=O)Cc2ccccc2Cl)cn1` (centres undefined), the pIC50 was 5.90.
In the case of `Cc1c(C(=O)OCc2ccccc2)[nH]c2c1C(=O)CC(c1ccco1)C2` (centres undefined), the IC50 was > 80 µM (inactive).
For `CC[C@]1(O)CC2CN(CCc3c([nH]c4ccccc34)[C@@](C(=O)OC)(c3cc4c(cc3OC)N(C=O)[C@H]3[C@@](O)(C(=O)OC)[C@H](OC(C)=O)[C@]5(CC)C=CCN6CC[C@]43[C@@H]65)C2)C1` (some centres undefined), the IC50 is > 80 µM (inactive).
Consider `COc1ccc(C(=O)c2ccc(N(C)C)cc2)c(OC)c1`, for which the IC50 was > 80 µM (inactive).
As for `CCOc1ccc(Nc2cc(C)nc(-n3nc(C)cc3C)n2)cc1`, the IC50 was > 80 µM (inactive).
For `O=c1cc(-c2cccc(F)c2)[nH]c2ccccc12`, the IC50 is > 80 µM (inactive).
